Assay type in all cases: physicochemical
The nature of data set [1]: Solubility of Form S14 in aqueous media at 37° C. Particulars: for solubility: thermodynamic from solid, read-out: Concentration (solubility). The protocol: (§1) Solubility was tested by addition of portions of […] solution to 25 mg of STG salt and stirring it at 37° C. for 1-2 minutes till dissolved. Form S14 was also found to be chemically and polymorphically stable.

A short description of data set [2]: Chemical and polymorphic storage stability of Form S14. Particulars: six months at 25° C. On the procedure:
as §1

A short description of data set [3]: Stability test in 0-100% relative humidity cells, 7 days, room temperature (XRPD and TGA). Particulars: for Polymorphically stable up to (relative humidity): 7 days at room temperature; for Equilibrium amount of water: from TGA of the humidity test. The protocol:
A sample of form S14 was equilibrated in 0-100% relative humidity cells for 7 days at room temperature. The samples were analyzed by XRPD and TGA. […] 10-15 mg samples were placed into 150 μL alumina crucibles and scanned between 25-250° C. at 10°/minute heating rate under 40 ml/minute N2 flow rate. For XRPD the ARL instrument was used. A sample of form S16 was equilibrated in 0-100% relative humidity cells for 7 days at room temperature. The samples were analyzed by XRPD and TGA. […] 10-15 mg samples were placed into 150 μL alumina crucibles and scanned between 25-250° C. at 10°/minute heating rate under 40 ml/minute N2 flow rate. For XRPD the ARL instrument was used.

Data set [4] in a line: Storage of a crystalline form under controlled relative humidity, form determined by powder XRD. The protocol: About 100 mg of Sitagliptin L-malate form I1 was put in an open yellow plastic cap, and kept at 100% relative humidity (RH) and room temperature for 6 days. It was then analyzed by powder XRD, and found to have transformed into form I2.
About 150 mg of Sitagliptin sulfate form S2 was put in an open Petri dish, and kept at 100±5% RH and room temperature for 12 days. It was then analyzed by powder XRD, and found to have transformed into form S9.
About 150 mg of Sitagliptin sulfate form S6 was put in an open Petri dish, and kept at 100±5% RH and room temperature for 12 days. It was then analyzed by powder XRD, and found to have transformed into form S9.
About 150 mg of Sitagliptin sulfate form S14 was stored under 80% RH at 25° C. for 7 days. The sample was then tested by XRPD and determined to be crystal form Si of Sitagliptin sulfate.
About 150 mg of Sitagliptin sulfate form S14 was stored under 100% RH at 25° C. for 7 days.
About 150 mg of Sitagliptin sulfate form S14 was stored under 70% RH at 25° C. for 7 days. The sample was then tested by XRPD and determined to be crystal form S1 of Sitagliptin sulfate.
About 150 mg of Sitagliptin sulfate form S14 was stored under 60% RH at 40° C. for 3 days. The sample was then tested by XRPD and determined to be crystal form S1 of Sitagliptin sulfate.

The nature of data set [5]: Water solubility of Form S16 (European Pharmacopoeia classification).
Setting [6] is: 0% RH, 7 days, room temperature.
[7] abbreviates: 20% RH, 7 days, room temperature.
Setting [8] is: 40% RH, 7 days, room temperature.
Setting [9] is: 60% RH, 7 days, room temperature.
Where [10] appears, read: 80% RH, 7 days, room temperature.
The mark [11] stands for this setting: 100% RH, 7 days, room temperature.

Where a name gives a salt, the structure may show the parent alone. Where only a bound is given, the exact number is not on record here.

With `N[C@@H](CC(=O)N1CCn2c(nnc2C(F)(F)F)C1)Cc1cc(F)c(F)cc1F` [Form S14, Sitagliptin sulfate], the solubility in data set [1] (aqueous medium, aqueous buffer, pH 4.5 37° C.) is 500 mg/mL; in data set [1] (aqueous medium, aqueous buffer, pH 6.8 37° C.) it was 330 mg/mL; in data set [1] (aqueous medium, aqueous buffer, pH 7.8 37° C.), 300 mg/mL; in data set [1] (aqueous medium, simulated gastric fluid, pH 1.2, 37° C.), 500 mg/mL; in data set [1] (Water 37° C.), 300 mg/mL. Moreover, the “Solubility in different aqueous media” value in data set [1] (different aqueous media) is recorded as “highly soluble”. In addition, the “Chemical and polymorphic stability” value in data set [2] is recorded as “No degradation or polymorphic transformation”. The “Hygroscopicity” value in data set [3] is “hygroscopic”. Moreover, the “% weight loss (TGA)” value in data set [3] (setting [6]) is recorded as 2.3%; in data set [3] (setting [7]), 2.0%; in data set [3] (setting [8]) it was 1.9%; in data set [3] (setting [9]), 2.4%; in data set [3] (setting [10]), 4.4%; in data set [3] (setting [11]) it was 8.9%. For the same molecule, the “% weight loss (TGA)” value in data set [3] (Before the experiment) stood at 3.4%. Also, in data set [3], the “Polymorphically stable up to (relative humidity)” value is recorded as “up to 60 % RH”. Further, the “Equilibrium amount of water” value in data set [3] is listed as “about 2%”. The “Form after storage (XRPD)” value in data set [4] (80% RH at 25° C. for 7 days) is “Si”; in data set [4] (100% RH at 25° C. for 7 days), “polymorphic mixture of form S1 and form S11”.

`N[C@@H](CC(=O)N1CCn2c(nnc2C(F)(F)F)C1)Cc1cc(F)c(F)cc1F` [Form S16, Sitagliptin sulfate]: the Solubility classification entry in data set [5] (classification of the European Pharmacopoeia Commission 01/2008:5110) is “freely soluble”. For the same molecule, in data set [5] (in 1 mL of water, read-out: Amount soluble in 1 mL of water), the solubility is at least 100 mg/mL. In data set [3], the “Hygroscopicity” value is “low hygroscopicity”. Moreover, the “% weight loss (TGA)” value in data set [3] (setting [6]) is 2.9%; in data set [3] (setting [7]), 2.9%; in data set [3] (setting [8]) it was 2.9%; in data set [3] (setting [9]), 2.9%; in data set [3] (setting [10]) it was 4.4%; in data set [3] (setting [11]), 8.9%. For the same molecule, the “% weight loss (TGA)” value in data set [3] (Before the experiment) is given as 3.0%. In data set [3], the “Polymorphically stable up to (relative humidity)” value is “up to 60 % RH”. This molecule returned a Constant water content in data set [3] (corresponds to the sesquihydrate) of 2.9%. Besides, the “Equilibrium amount of water” value in data set [3] was “about 2.9%”.
